Test results taken from US10759774B2, “Inhibitors of hepatitis B virus targeting capsid assembly” (THE CURATORS OF THE UNIVERSITY OF MISSOURI, priority 2017, dated 2020).

Test: Cytotoxicity, Cell Proliferation Kit II (XTT) (Table 2)
Format: cell-based
Conditions: human
Protocol: HepG2 cells were treated with compounds as in the antiviral screening above. At the end of treatment duration, cell viability was assessed with the Cell Proliferation Kit II (XTT) (Roche, Basel, Switzerland) according to the manufacturer's instructions. Values were plotted in GraphPad Prism 5 and analyzed with the log (inhibitor) vs. normalized response—variable slope equation.

Row | SMILES | CC50 [µM]
1 | Cc1cc(NC(=O)c2c(N)sc(C(=O)Nc3ccccc3)c2C)ccc1F [ZW-934, 5-Amino-N4-(4-fluoro-3-methylphenyl)-3-methyl-N2-phenylthiophene-2,4-dicarboxamide] | 39.6 ± 2.6
2 | Cc1c(C(=O)Nc2ccc(F)c(F)c2)sc(N)c1C(=O)Nc1ccccc1 [ZW-892, 5-Amino-N2-(3,4-difluorophenyl)-3-methyl-N4-phenylthiophene-2,4-dicarboxamide] | 26.2 ± 2.7
3 | Cc1c(C(=O)Nc2cc(F)c(F)c(Cl)c2)sc(N)c1C(N)=O [ZW-1034, 5-Amino-N2-(3-chloro-4,5-difluorophenyl)-3-methylthiophene-2,4-dicarboxamide] | 71.8 ± 4.1
4 | Cc1c(C(=O)Nc2ccccc2)sc(NC(=O)c2cc(Cl)cc(Cl)c2)c1C(N)=O [ZW-1040, 5-(3,5-Dichlorobenzamido)-3-methyl-N2-phenylthiophene-2,4-dicarboxamide] | 49.5 ± 0.1
5 | Cc1cc(NC(=O)c2sc(N)c(C(N)=O)c2C)ccc1Br [ZW-1068, 5-Amino-N2-(4-bromo-3-methylphenyl)-3-methylthiophene-2,4-dicarboxamide] | 107 ± 7.2

Same assay, conditions: human, HepG2 cells

Row | SMILES | CC50 [µM]
6 | Cc1c(C(=O)Nc2ccccc2)sc(N)c1C(=O)Nc1ccccc1 [ZW-794, 5-Amino-3-methyl-N2,N4-diphenylthiophene-2,4-dicarboxamide] | > 100
7 | Cc1c(C(=O)Nc2ccc(F)c(F)c2)sc(N)c1C(=O)Nc1ccc(F)c(F)c1 [ZW-932, 5-Amino-N2,N4-bis(3,4-difluorophenyl)-3-methylthiophene-2,4-dicarboxamide] | 17.4 ± 1.3
8 | Cc1c(C(=O)Nc2ccc(F)c(C#N)c2)sc(N)c1C(N)=O [ZW-1039, 5-Amino-N2-(3-cyano-4-fluorophenyl)-3-methylthiophene-2,4-dicarboxamide] | > 100
9 | Cc1c(C(=O)Nc2ccccc2)sc(NC(=O)c2nccs2)c1C(N)=O [ZW-1053, 3-Methyl-N2-phenyl-5-(thiazole-2-carboxamido)thiophene-2,4-dicarboxamide] | > 100
10 | Cc1c(C(=O)Nc2ccccc2)sc(NC(=O)c2cn[nH]c2)c1C(N)=O [ZW-1052, 3-Methyl-N2-phenyl-5-(1H-pyrazole-4-carboxamido)thiophene-2,4-dicarboxamide] | > 100
11 | CCOC(=O)c1c(N)sc(C(=O)Nc2ccc(F)c(C)c2)c1C [ZW-1046, Ethyl 2-amino-5-((4-fluoro-3-methylphenyl)carbamoyl)-4-methylthiophene-3-carboxylate] | > 100
12 | Cc1c(C(=O)Nc2ccccc2)sc(NC(=O)c2csc([N+](=O)[O-])c2)c1C(N)=O [ZW-1054, 3-Methyl-5-(5-nitrothiophene-3-carboxamido)-N2-phenylthiophene-2,4-dicarboxamide] | > 100
13 | Cc1c(C(=O)Nc2ccc(F)c(F)c2)sc(N)c1C(N)=O [ZW-896, 5-Amino-N2-(3,4-difluorophenyl)-3-methylthiophene-2,4-dicarboxamide] | > 100
14 | Cc1c(C(=O)Nc2ccc(F)c(C(F)F)c2)sc(N)c1C(N)=O [ZW-1066, 5-Amino-N2-(3-(difluoromethyl)-4-fluorophenyl)-3-methylthiophene-2,4-dicarboxamide] | > 100
15 | Cc1c(C(=O)Nc2ccc(F)c(C(F)(F)F)c2)sc(N)c1C(N)=O [ZW-1057, 5-Amino-N2-(4-fluoro-3-(trifluoromethyl)phenyl)-3-methylthiophene-2,4-dicarboxamide] | > 100
16 | Cc1c(C(=O)Nc2ccccc2)sc(NC(=O)c2ccsc2)c1C(N)=O [ZW-1055, 3-Methyl-N2-phenyl-5-(thiophene-3-carboxamido)thiophene-2,4-dicarboxamide] | > 100
17 | Cc1c(C(=O)Nc2ccc(F)cc2)sc(N)c1C(N)=O [ZW-1037, 5-Amino-N2-(4-fluorophenyl)-3-methylthiophene-2,4-dicarboxamide] | > 100
18 | Cc1ccc(C(=O)Nc2sc(C(=O)Nc3ccccc3)c(C)c2C(N)=O)s1 [ZW-1056, 3-Methyl-5-(5-methylthiophene-2-carboxamido)-N2-phenylthiophene-2,4-dicarboxamide] | > 100
